# From ChEMBL document CHEMBL1139551, “2,3-Ethylene- and 2,3-trimethylene-bridged analogues of the group III metabotropic glutamate receptor ligand 2-amino-4-phosphonobutanoic acid” (Bioorg Med Chem Lett, 2005)
# Molecular target: T1, Metabotropic glutamate receptor 4 (Homo sapiens, UniProt Q14833)
# Assay: Agonistic activity towards group III Metabotropic glutamate receptor stably expressed in AV12 cells when tested up to 200 uM; NS means no significant activity
# Type: functional, cell-based
# T1 sequence (Q14833 whole entry): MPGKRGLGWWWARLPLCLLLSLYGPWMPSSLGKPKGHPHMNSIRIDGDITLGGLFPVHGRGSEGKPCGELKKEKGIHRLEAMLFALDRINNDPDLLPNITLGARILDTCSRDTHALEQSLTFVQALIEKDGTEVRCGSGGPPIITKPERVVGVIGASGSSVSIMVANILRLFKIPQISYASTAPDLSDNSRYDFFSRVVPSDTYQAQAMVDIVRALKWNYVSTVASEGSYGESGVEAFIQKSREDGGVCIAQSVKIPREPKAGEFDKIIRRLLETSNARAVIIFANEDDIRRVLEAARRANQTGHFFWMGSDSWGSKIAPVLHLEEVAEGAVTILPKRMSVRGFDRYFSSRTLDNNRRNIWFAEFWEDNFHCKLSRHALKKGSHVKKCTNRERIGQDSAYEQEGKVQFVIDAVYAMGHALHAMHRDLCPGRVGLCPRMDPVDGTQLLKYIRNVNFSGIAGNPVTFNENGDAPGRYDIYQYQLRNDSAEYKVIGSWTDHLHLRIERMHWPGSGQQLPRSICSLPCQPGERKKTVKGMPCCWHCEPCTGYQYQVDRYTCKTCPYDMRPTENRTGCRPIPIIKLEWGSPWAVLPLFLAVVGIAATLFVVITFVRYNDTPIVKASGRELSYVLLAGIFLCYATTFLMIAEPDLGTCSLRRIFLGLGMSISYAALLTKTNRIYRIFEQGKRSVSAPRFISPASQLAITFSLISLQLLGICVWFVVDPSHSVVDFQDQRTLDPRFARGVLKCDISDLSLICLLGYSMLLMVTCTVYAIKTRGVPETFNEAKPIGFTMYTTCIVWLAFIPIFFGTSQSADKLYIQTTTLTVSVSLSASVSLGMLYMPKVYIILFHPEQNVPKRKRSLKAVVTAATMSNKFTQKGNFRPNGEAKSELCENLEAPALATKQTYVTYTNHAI
row,SMILES,Activity
1,NC1(C(=O)O)CCC1CP(=O)(O)O (stereo in doubt; 6),No significant activity
2,NC1(C(=O)O)CCCC1CP(=O)(O)O (stereo in doubt; 8),No significant activity
3,NC1(C(=O)O)CCC1CP(=O)(O)O (stereo in doubt; 5),No significant activity
4,NC1(C(=O)O)CCCC1CP(=O)(O)O (stereo in doubt; 7),No significant activity

# Molecular target: T1, Metabotropic glutamate receptor 4
# Assay: Effective concentration which exhibit agonistic activity at metabotropic glutamate 4 receptor stably expressed in AV12 cells
# Type: functional, cell-based
row,SMILES,EC50
1,NC1(C(=O)O)CC1CP(=O)(O)O (stereo in doubt; 3),7.9 µM
2,NC1(C(=O)O)CC1CP(=O)(O)O (stereo in doubt; 4),0.58 µM
